The values that follow are results of earlier work, collected in patent publication US8242056B2, “Agriculture actives delivery composition comprising boron and persulfate ion-crosslinked polyvinyl alcohol microcapsules and method of use thereof” (Appleton Papers Inc., priority 2008, dated 2012).

Where two headings read alike, the source gives them in different places.

What is called pKa is the pH at which an ionisable group is half protonated.

The conditions of data set [1]: half ionized and half un-ionized at its pKa.

In the case of `COc1cc(OC)nc(NC(=O)NS(=O)(=O)c2ncccc2C(=O)N(C)C)n1` [nicosulfuron], the pKa in data set [1] is on record as 4.3. The Water solubility (pH5) was 360 ppm, the Water solubility (pH 6.9) is reported as 12,200 ppm and the Water solubility (pH 8.8) is recorded as 29,200 ppm.
